Experimental data as given in patent publication US9139581B2 (PORTOLA PHARMACEUTICALS, INC., priority 2008, dated 2015).

Columns and labels:
[1] = system: Toledo and Karpas-422 cell lines; settings: Chen, Monti et al. 2008; cited from earlier work
[2] = system: SUDHL-4 and SUDHL-6 cells; settings: Chen, Monti et al. 2008; cited from earlier work
Purified human JAK3 = target: T1, Purified human JAK3 (Homo sapiens, UniProt P52333); experiment: Millipore Upstate KinaseProfiler screening, JAK3 catalytic activity; type: biochemical; settings: Table 5; read-out: Inhibition (IC50%) of catalytic activity of JAK 3
T1 construct: purchased Millipore Upstate KinaseProfiler; host or cells: insect cells
Procedure: This assay is a direct measurement of the effect of compound on the catalytic activity of JAK3. Purified human JAK3 (GenBank AF513860) sequence (residue 781-C terminus) was obtained from insect cells. The catalytic hydrolysis of ATP is measured using a radiometric filter binding method. Incubation of kinase with ^33-[P]ATP and substrate leads to incorporation of ^33[P] into the substrate which can then be separated from the other reaction components by filtration. Assays were performed using 10 μM ATP and in the absence or presence of 1, 0.3, or 0.1 μM compound. Activity was expressed as % of inhibition of control.
In the table below, activity in the Jak assays is provided as follows: +++++=IC50<0.0010 μM; ++++=0.0010 μM<IC50<0.010 μM, +++=0.010 μM<IC50<0.10 μM, ++=0.10 μM<IC50<1 μM, +=IC50>1 μM.

JAK1 = target: T2, JAK1 (Homo sapiens, UniProt P23458); experiment: Millipore Upstate KinaseProfiler screening, JAK1 catalytic activity; type: biochemical; settings: Table 5; read-out: Inhibition (IC50%) of catalytic activity of JAK 1
T2 construct: purchased Millipore Upstate KinaseProfiler

JAK2 = target: T3, JAK2 (Homo sapiens, UniProt O60674); experiment: Millipore Upstate KinaseProfiler screening, JAK2 catalytic activity; type: biochemical; settings: Table 5; read-out: Inhibition (IC50%) of catalytic activity of JAK 2
T3 construct: purchased Millipore Upstate KinaseProfiler

SUDHL-6 and Toledo cells = experiment: Caspase 3 apoptosis assay; type: cell-based, human; settings: 1 μM, 72 h treatment
Procedure: Induction of apoptosis in non-Hodgkin's lymphoma B cell lines SUDHL-4, SUDHL-6, and Toledo was assessed by measuring the apoptotis marker Caspase 3. Cells were incubated with 1, 3, or 10 μM compound for 24, 48, and 72 hours. At the conclusion of each time point, cells were processed for flow cytometry analysis using the Monoclonal Rabbit Anti-Active Caspase-3 Antibody Kit and related protocols (BD Pharmingen). Data from two independent experiments are presented in Tables 5A and 5B, representing the percent of total cells undergoing apoptosis following incubation with compounds under the indicated conditions.
Induction of apoptosis was measured using the PE-conjugated monoclonal active caspase-3 antibody apoptosis kit (Becton Dickenson) following the supplied protocol. Cells were suspended in growth media (0.5×10^6 cells/ml) and treated with the indicated concentrations of each Syk inhibitor or vehicle control for 24, 48, or 72 hours prior to FACS analysis. The MTT (3-(4,5-Dimethylthiazol-2-yl)-2,5-diphenyltetrazolium bromide, a tetrazole) assay […] was used as a measure of cell viability and growth, following protocols supplied by the manufacturer. Cells were treated with the indicated concentrations of each Syk inhibitor or vehicle control for 72 hours.
Selective inhibition of Syk was sufficient to induce apoptosis in “BCR-type” NHL cell lines.

T3 sequence (O60674 whole entry): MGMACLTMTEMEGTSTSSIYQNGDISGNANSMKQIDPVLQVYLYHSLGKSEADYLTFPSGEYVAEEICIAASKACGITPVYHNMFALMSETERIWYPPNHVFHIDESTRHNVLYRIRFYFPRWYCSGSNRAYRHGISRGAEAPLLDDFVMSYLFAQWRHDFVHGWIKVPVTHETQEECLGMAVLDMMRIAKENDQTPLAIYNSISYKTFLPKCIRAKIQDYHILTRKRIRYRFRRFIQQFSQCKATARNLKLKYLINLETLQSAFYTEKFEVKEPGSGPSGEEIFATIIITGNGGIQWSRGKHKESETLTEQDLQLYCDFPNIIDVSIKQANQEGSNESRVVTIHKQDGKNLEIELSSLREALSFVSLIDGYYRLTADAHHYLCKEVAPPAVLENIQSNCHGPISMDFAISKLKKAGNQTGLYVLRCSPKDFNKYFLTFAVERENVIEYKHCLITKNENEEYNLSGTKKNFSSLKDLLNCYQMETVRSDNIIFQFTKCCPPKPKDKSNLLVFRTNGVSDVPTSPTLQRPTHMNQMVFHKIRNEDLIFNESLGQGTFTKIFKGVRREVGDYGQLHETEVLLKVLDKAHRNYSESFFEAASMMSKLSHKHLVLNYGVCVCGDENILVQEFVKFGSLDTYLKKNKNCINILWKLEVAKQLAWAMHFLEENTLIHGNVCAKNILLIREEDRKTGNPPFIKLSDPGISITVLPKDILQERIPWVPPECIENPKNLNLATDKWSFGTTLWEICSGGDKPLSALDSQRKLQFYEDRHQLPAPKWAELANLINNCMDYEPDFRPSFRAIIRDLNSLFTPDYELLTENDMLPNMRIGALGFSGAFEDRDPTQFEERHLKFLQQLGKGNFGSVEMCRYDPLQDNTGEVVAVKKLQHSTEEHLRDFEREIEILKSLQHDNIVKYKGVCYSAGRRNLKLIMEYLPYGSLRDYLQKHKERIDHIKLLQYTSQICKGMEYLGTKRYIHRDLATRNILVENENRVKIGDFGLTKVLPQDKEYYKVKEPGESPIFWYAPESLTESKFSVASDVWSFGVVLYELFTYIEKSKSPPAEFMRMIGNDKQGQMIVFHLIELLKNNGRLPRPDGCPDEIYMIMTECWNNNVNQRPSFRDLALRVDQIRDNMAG
T2 sequence (P23458 whole entry): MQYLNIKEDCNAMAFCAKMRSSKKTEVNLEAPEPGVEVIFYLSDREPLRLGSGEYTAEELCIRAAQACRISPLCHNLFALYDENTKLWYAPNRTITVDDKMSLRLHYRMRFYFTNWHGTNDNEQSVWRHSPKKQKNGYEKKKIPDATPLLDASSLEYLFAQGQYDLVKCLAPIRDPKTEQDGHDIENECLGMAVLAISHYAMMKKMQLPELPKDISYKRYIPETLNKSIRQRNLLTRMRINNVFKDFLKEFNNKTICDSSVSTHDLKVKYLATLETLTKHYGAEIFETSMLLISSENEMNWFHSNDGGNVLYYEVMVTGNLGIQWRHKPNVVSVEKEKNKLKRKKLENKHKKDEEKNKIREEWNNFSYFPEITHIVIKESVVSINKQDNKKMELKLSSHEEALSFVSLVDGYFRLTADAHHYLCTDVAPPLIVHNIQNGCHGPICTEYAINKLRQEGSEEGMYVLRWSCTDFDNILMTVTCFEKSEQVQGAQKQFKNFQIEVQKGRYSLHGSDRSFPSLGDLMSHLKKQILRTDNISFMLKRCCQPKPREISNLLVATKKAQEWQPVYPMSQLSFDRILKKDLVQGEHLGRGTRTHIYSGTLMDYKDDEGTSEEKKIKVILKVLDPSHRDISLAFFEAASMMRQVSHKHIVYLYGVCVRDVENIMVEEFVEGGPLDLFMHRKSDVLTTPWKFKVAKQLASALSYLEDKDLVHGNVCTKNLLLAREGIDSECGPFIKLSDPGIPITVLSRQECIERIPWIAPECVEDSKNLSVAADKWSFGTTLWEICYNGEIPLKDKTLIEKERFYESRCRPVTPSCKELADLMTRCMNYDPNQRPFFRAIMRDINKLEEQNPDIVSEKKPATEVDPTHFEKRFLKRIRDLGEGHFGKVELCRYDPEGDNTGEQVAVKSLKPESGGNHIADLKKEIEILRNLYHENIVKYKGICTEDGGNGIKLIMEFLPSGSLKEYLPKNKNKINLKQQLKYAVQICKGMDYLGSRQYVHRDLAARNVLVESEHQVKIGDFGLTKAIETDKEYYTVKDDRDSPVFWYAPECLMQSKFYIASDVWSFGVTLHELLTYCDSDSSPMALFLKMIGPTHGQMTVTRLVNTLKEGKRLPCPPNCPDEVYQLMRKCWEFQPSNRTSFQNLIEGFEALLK
T1 sequence (P52333 781-1124 limits assumed): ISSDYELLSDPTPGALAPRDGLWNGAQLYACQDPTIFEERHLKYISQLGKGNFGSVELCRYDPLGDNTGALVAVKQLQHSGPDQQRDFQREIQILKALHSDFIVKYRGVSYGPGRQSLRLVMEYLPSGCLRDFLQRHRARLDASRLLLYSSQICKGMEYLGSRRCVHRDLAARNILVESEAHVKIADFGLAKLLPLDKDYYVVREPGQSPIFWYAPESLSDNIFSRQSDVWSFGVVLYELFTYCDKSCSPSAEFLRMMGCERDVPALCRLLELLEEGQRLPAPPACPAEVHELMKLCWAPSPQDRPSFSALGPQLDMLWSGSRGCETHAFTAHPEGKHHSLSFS

Structure (SMILES) | Sensitivity to R406 [1] | Sensitivity to Syk inhibition by R406 [2] | IC50 (Purified human JAK3) | IC50 (JAK1) | IC50 (JAK2) | Induction of apoptosis (SUDHL-6 and Toledo cells)
COc1cc(Nc2ncc(F)c(Nc3ccc4c(n3)NC(=O)C(C)(C)O4)n2)cc(OC)c1OC [Example R406] | insensitive | sensitive |  |  |  | 
N#Cc1c[nH]c2nc(Nc3ccc(S(N)(=O)=O)cc3)nc(NC3CC3)c12 [drawing 210] |  |  | 10 to 100 nM | 10 to 100 nM | 10 to 100 nM | 
CCCCCCCCCCCCCC(=O)O[C@@H]1[C@@H](C)[C@@]2(O)[C@@H](C=C(CO)C[C@]3(O)C(=O)C(C)=C[C@@H]23)[C@@H]2C(C)(C)[C@]12OC(C)=O [PMA] |  |  |  |  |  | equally sensitive to induction of apoptosis
CS(=O)(=O)N1CCN(c2ccc(Nc3nc(Nc4cccc(S(N)(=O)=O)c4)c4cc[nH]c4n3)cc2)CC1 |  |  | 100 to 1000 nM | > 1000 nM | 100 to 1000 nM | 
Cc1c[nH]c2nc(Nc3ccc4cn[nH]c4c3)nc(NC3CCC3)c12 |  |  | 100 to 1000 nM | > 1000 nM | 100 to 1000 nM | 
CC(=O)c1c[nH]c2nc(Nc3ccc4cn[nH]c4c3)nc(NC3CC3)c12 [drawing 207] |  |  | > 1000 nM | > 1000 nM | > 1000 nM | 
